Article PMC5404848 (Cell Chemical Biology, 2017)

Legend:
Assay type in all cases: cell-based, Human
HCT116 p53^wt cells [1] = assay: Western blot analysis of protein expression
Text: (§1) The progression from G1 to S phase relies largely on the expression and activity of D cyclins. To verify whether the observed impairment in cell-cycle progression following LCAHA treatment is associated with D cyclins, we investigated the expression of cyclins D1 and D3 in HCT116 p53^wt and HCT116 p53^−/− cells.

HCT116 p53^−/− cells [2] = assay: Western blot analysis of protein expression; details: 5 or 20 μM, 48 hr
Text: as §1

HCT116 p53^−/− cells [3] = assay: Cell cycle analysis (PI / BrdU, flow cytometry); details: 5 or 10 μM, 48 hr
Method: Low concentrations of LCAHA inhibit the growth of HCT116 cells without affecting their survival. To investigate this effect, we analyzed the cell-cycle distribution. Cells treated for 48 hr with LCAHA or DMSO were pulse-labeled with BrdU for 1 hr and stained with fluorescein isothiocyanate (FITC)-anti-bromodeoxyuridine (BrdU) antibody and propidium iodide (PI).
The cells were treated with DMSO or LCAHA for 48 hours and pulse-labelled with 10 μM bromodeoxyuridine (BrdU, Sigma Aldrich) for the last hour of the treatment. After that, the cells were either harvested by trypsinization and fixed with 96% ethanol, or cultured for additional 3-9 hours in the absence of BrdU before harvesting and fixation. The cells were stained with PI and FITC-conjugated anti-BrdU antibody (BioLegend, cat. 364104) and analysed with Fortessa flow cytometer (Becton Dickinson). Cell cycle distribution was analysed using ModFit LT Software (Verity Software House).

HCT116 p53^−/− cells [4] = assay: MTT assay (cell viability), 6 days treatment; details: for GI50: HCT116 p53^−/−, MTT assay
Method: To test the biological activity of the compounds, we performed MTT (3-(4,5-dimethylthiazol-2-yl)-2,5-diphenyltetrazolium bromide) and lactate dehydrogenase (LDH) release assays. […] To track not only the toxic (lethal) but also growth-inhibitory (GI) effect in the MTT assay, we treated the cells for 6 days.
For MTT assay, the cells were seeded on 96-well transparent plates and treated the next day with the compounds or DMSO for 6 days. Thiazolyl Blue Tetrazolium Bromide (MTT, Sigma Aldrich) was added for 60 minutes to a final concentration of […]. The medium was removed and MTT crystals were dissolved in isopropanol supplemented with 40 mM HCl. The absorbance was measured with Infinite 200 microplate reader (Tecan Group Ltd.) at 570 nm with the reference wavelength 650 nm for background subtraction.

MCF-7 cells [5] = assay: Synchronization-release assay (serum starvation and release); details: pre-treatment during 2 days serum starvation, release 10% FBS 24 hr
Text: Cyclin D1 is a key modulator of the transition through the G1/S checkpoint and is known to be sensitive to proliferative signals delivered by the mitogens. To evaluate the interplay between the mitogens provided by the serum and LCAHA, we performed a synchronization-release assay on the cells treated with LCAHA. To assess the involvement of cyclin D1 in this interplay, we used MCF-7 (cyclin D1-dependent) and SAOS-2 (cyclin D1-negative) cells. The cells were synchronized in G0/G1 by the removal of fetal bovine serum (FBS) for 2 days of the culture in the presence of LCAHA. After this time, the cells were released by the addition of medium containing 10% FBS for 24 hr (still in the presence of the compound).
Figure S4. The analysis of the progression of MCF-7 and SAOS-2 cells through the cell cycle following serum starvation and release by the addition of serum. Related to […]
For the experiment, cyclin D1-dependent MCF-7 and cyclin D1-negative SAOS-2 cell lines were used.
The cells were synchronized in G0/G1 by the removal of FBS for 2 days of the culture in the presence of LCAHA compound. […] The cells were fixed, stained with PI and analysed for cell cycle distribution with ModFit LT Software. […] The statistical significance was evaluated using t-test: * p<0.05, ** […]

MCF-7 cells [6] = assay: Colony formation assay; details: 5 μM for 5 days
Method: (§2) […]. […] […]. In addition a colony-forming assay was performed on cyclin D1-addicted MCF-7 cells and cyclin D1-negative SAOS-2 cells. […].
(§3) One thousand of the cells was then seeded on 6-well plates and cultured for 2-4 weeks until the generation of well-visible clones. The plates were stained with crystal violet, imaged with the ChemiDoc MP system and analyzed using the ImageJ software ([Schneider et al., 2012]) and ‘Analyze particles’ tool. The surviving fraction (SF) was calculated using the equation: SF = (PE of treated sample / PE of control) * 100%, where PE (plating efficiency) = Ncolonies / Ncells plated.

SAOS-2 cells = assay: Colony formation assay; details: 5 μM for 5 days
Method: as §2, §3

HCT116 cells = assay: Membrane integrity LDH release assay; details: 48 hr of treatment
Method: To test the biological activity of the compounds, we performed MTT (3-(4,5-dimethylthiazol-2-yl)-2,5-diphenyltetrazolium bromide) and lactate dehydrogenase (LDH) release assays. In addition, the importance of p53 status was evaluated by the use of two variants of HCT116 cells: HCT116 p53^wt (wild-type) and HCT116 p53^−/−. To track not only the toxic (lethal) but also growth-inhibitory (GI) effect in the MTT assay, we treated the cells for 6 days. In the experiment the toxic effect, but not the GI effect, was expected to be accompanied by LDH release.
Membrane integrity LDH release assay was performed using CytoTox-ONE kit (Promega). The cells were seeded on 96-well black plates, and after 24 hours treated with the compounds or DMSO for 2 days. The assay was performed according to the manufacturer’s instructions. For each well the data was calculated as a % of total LDH content, measured for the lysed cells, treated in the same manner as cells on that well.

HCT116 p53^wt cells [7] = assay: Caspase 3/7 activity (Caspase-Glo 3/7)
Method: To evaluate whether the observed effects are accompanied by the induction of apoptosis, we examined the activation of caspases 3 and 7 in HCT116 p53^wt cells.
The cells were plated on the 96-well white, flat bottom plates (Falcon) and treated with DMSO, LCAHA or Staurosporine. For the detection of caspase activity Caspase-Glo 3/7 Assay System was used (Promega) according to the manufacturer’s instructions.

## C[C@H](CCC(=O)NO)[C@H]1CC[C@H]2[C@@H]3CC[C@@H]4C[C@H](O)CC[C@]4(C)[C@H]3CC[C@]12C [LCAHA, N-(hydroxy)-3-hydroxylithocholanamide]
HCT116 p53^wt cells [1]; 5 μM, 24, 26, 28, 30, or 32 hr
  cyclin D1 level over time course: significant decrease in cyclin D1
HCT116 p53^wt cells [1]; 5 or 20 μM, 48 hr
  cyclin D1 expression: significant, dose-dependent decrease
  cyclin D3 expression: no effect
HCT116 p53^−/− cells [2]
  cyclin D1 expression: significant, dose-dependent decrease
  cyclin D3 expression: no effect
HCT116 p53^−/− cells [3]
  G0/G1 arrest: mild, but significant G0/G1 arrest
HCT116 p53^−/− cells [4]; 6 days
  GI50: 960 ± 290 nM
HCT116 p53^−/− cells [4]; Homo sapiens, HCT-116, 144 h, 6 days
  GI50: < 1000 nM
HCT116 p53^−/− cells [4]; Homo sapiens, HCT-116, 144 h, read-out: LD50, HCT116 p53^−/−, MTT assay, 6 days
  LD50: > 25 µM
HCT116 p53^−/− cells [4]; concentration range 2–20 μM, MTT, 6 days
  growth of cells inhibited: about 60%
MCF-7 cells [5]
  entry into the S phase after serum release: significantly inhibited the entry into the S phase
MCF-7 cells [6]
  clonogenic potential (surviving fraction and mean colony size): significant decrease of the clonogenic potential
SAOS-2 cells
  clonogenic potential: did not affect the clonogenic potential
HCT116 cells
  LDH release: observed only at the concentrations corresponding to the high-concentration toxic effect
HCT116 p53^wt cells [7]; 10 μM
  caspase 3 and 7 activity: increase of caspase activity significant
HCT116 p53^wt cells [7]; 1 or 5 μM, 48 or 72 hr
  caspase 3 and 7 activity: weak and non-significant increase
